Results from US20070104778A1, “Controlled-release emulsion compositions” (priority 2005, published 2007).
Converted amounts (≈) assume the structure as drawn. Like-named read-outs stand apart in the source and are kept apart here.

Key:
[1] = Solubility of clozapine in different pH medium; type: physicochemical
[2] = Solubility of clozapine in solvent; type: physicochemical; conditions: organic solvent or mixture
[3] = Solubility of clozapine in organic acid and Vitamin E-TPGS + organic acid combination

With `CN1CCN(C2=Nc3cc(Cl)ccc3Nc3ccccc32)CC1` [Clozapine, clozapine] as the compound, how does the solubility ([1]; DI water, water) read?
The solubility was 11.8 µg/mL (≈ 36.1 µM).

What about the “Solubility (pH dependent behavior)” value ([1]; low pH regions) of the same compound?
The value was “fairly good solubility”.

And the solubility ([1]; pH 1.5 medium, pH 1.5, simulated gastric fluid)?
The solubility was 712 µg/mL (≈ 2180 µM).

And the solubility ([1]; pH 7.5 medium, pH 7.5, aqueous buffer)?
Its solubility is 30.7 µg/mL (≈ 93.9 µM).

What about the “Solubility (pH dependent behavior)” value ([1]; pH beyond 5) of the same compound?
The value was “low solubility”.

And the solubility ([2]; 2-pyrrolidinone (Soluphor-P))?
The solubility was > 250000 µg/mL.

What about the solubility ([2]; N-methyl-2-pyrrolidinone (NMP)) of the same compound?
Its solubility is > 300000 µg/mL.

What about the solubility (Bile extract 1% w/v surfactant solution, aqueous with cosolvent or surfactant or cyclodextrin) of the same compound?
The solubility was 941 µg/mL (≈ 2880 µM).

What about the solubility (Brij 700 1% w/v surfactant solution, aqueous with cosolvent or surfactant or cyclodextrin) of the same compound?
The solubility was 336 µg/mL (≈ 1030 µM).

And the solubility (Cremphor A25 1% w/v surfactant solution, aqueous with cosolvent or surfactant or cyclodextrin)?
Its solubility is 506 µg/mL (≈ 1550 µM).

And the solubility (Cremphor A-6 1% w/v surfactant solution, aqueous with cosolvent or surfactant or cyclodextrin)?
The solubility was 11.5 µg/mL (≈ 35.2 µM).

What about the solubility (Cremphor RH 40 1% w/v surfactant solution, aqueous with cosolvent or surfactant or cyclodextrin) of the same compound?
The solubility was 115 µg/mL (≈ 351 µM).

What about the solubility (Labrasol 1% w/v surfactant solution, aqueous with cosolvent or surfactant or cyclodextrin) of the same compound?
The solubility was 70.6 µg/mL (≈ 216 µM).

What about the solubility (Lutrol F-68 1% w/v surfactant solution, aqueous with cosolvent or surfactant or cyclodextrin) of the same compound?
The solubility was 15.3 µg/mL (≈ 46.8 µM).

And the solubility (PEG 400 1% w/v surfactant solution)?
Its solubility is 30.9 µg/mL (≈ 94.6 µM).

What about the solubility (PEG 600 1% w/v surfactant solution) of the same compound?
The solubility was 29.7 µg/mL (≈ 90.8 µM).

What about the solubility (PEG distearate 1% w/v surfactant solution, aqueous with cosolvent or surfactant or cyclodextrin) of the same compound?
The solubility was 952 µg/mL (≈ 2910 µM).

And the solubility (PEG-diolaurate 1% w/v surfactant solution, aqueous with cosolvent or surfactant or cyclodextrin)?
The solubility was 104 µg/mL (≈ 320 µM).

And the solubility (PEG-monolaurate 1% w/v surfactant solution, aqueous with cosolvent or surfactant or cyclodextrin)?
Its solubility is 372 µg/mL (≈ 1140 µM).

What about the solubility (Sodium Dodecylate Sulfate (SDS) 1% w/v surfactant solution, aqueous with cosolvent or surfactant or cyclodextrin) of the same compound?
Its solubility is 1140 µg/mL (≈ 3480 µM).

And the solubility (Sodium desoxycholate 1% w/v surfactant solution, aqueous with cosolvent or surfactant or cyclodextrin)?
Its solubility is 342 µg/mL (≈ 1050 µM).

And the solubility (Solutol HS15 1% w/v surfactant solution, aqueous with cosolvent or surfactant or cyclodextrin)?
The solubility was 344 µg/mL (≈ 1050 µM).

What about the solubility (Span 20 1% w/v surfactant solution, aqueous with cosolvent or surfactant or cyclodextrin) of the same compound?
Its solubility is 16.1 µg/mL (≈ 49.4 µM).

And the solubility (Tween 20 1% w/v surfactant solution, aqueous with cosolvent or surfactant or cyclodextrin)?
Its solubility is 158 µg/mL (≈ 485 µM).

What about the solubility (Tween 80 1% w/v surfactant solution, aqueous with cosolvent or surfactant or cyclodextrin) of the same compound?
Its solubility is 399 µg/mL (≈ 1220 µM).

What about the solubility ([3]; Alginic acid 1% w/v, aqueous buffer) of the same compound?
Its solubility is 9.99 µg/mL.

What about the solubility ([3]; Ascorbic acid 1% w/v, aqueous buffer) of the same compound?
The solubility was 259 µg/mL.

What about the solubility ([3]; Citric acid (0.1M), aqueous buffer) of the same compound?
Its solubility is 35400 µg/mL.

What about the solubility ([3]; Fumaric acid (0.01M), aqueous buffer) of the same compound?
The solubility was 8880 µg/mL.

And the solubility ([3]; Oleinic acid 1% w/v, aqueous with cosolvent or surfactant or cyclodextrin)?
Its solubility is 9.86 µg/mL.

What about the “Solubility of Clozapine in Organic Acid” value ([3]; Stearic acid 1% w/v) of the same compound?
The value was “Form conjugated compound”.

What about the solubility ([3]; Succinic acid (0.05M), aqueous buffer) of the same compound?
The solubility was 25700 µg/mL.
